# From patent US20250084040A1, “SUBSTITUTED HETEROCYCLES AS c-MYC TARGETING AGENTS” (Northwestern University, priority 2018, published 2025)
# System: NCI 60 cell panel
# Assay: NCI 60 Cell One-Dose Screen
# Type: cell-based, human
# Settings: 1.00E−5 Molar
# Procedure: General Description. As of early 2007 all compounds submitted to the NCI 60 Cell screen are tested initially at a single high dose (10^-5 M) in the full NCI 60 cell panel. Only compounds which satisfy pre-determined threshold inhibition criteria in a minimum number of cell lines will progress to the full 5-dose assay. The threshold inhibition criteria for progression to the 5-dose screen was selected to efficiently capture compounds with anti-proliferative activity based on careful analysis of historical DTP screening data. The threshold criteria may be updated as additional data becomes available.
# Interpretation of One-Dose Data. The One-dose data will be reported as a mean graph of the percent growth of treated cells and will be similar in appearance to mean graphs from the 5-dose assay. The number reported for the One-dose assay is growth relative to the no-drug control, and relative to the time zero number of cells. This allows detection of both growth inhibition (values between 0 and 100) and lethality (values less than 0). This is the same as for the 5-dose assay, described below. For example, a value of 100 means no growth inhibition. A value of 40 would mean 60% growth inhibition. A value of 0 means no net growth over the course of the experiment. A value of −40 would mean 40% lethality. A value of −100 means all cells are dead. Information from the One-dose mean graph is available for COMPARE analysis.
# The human tumor cell lines of the cancer screening panel are grown in RPMI 1640 medium containing 5% fetal bovine serum and 2 mM L-glutamine. For a typical screening experiment, cells are inoculated into 96 well microtiter plates in 100 μL at plating densities ranging from 5,000 to 40,000 cells/well depending on the doubling time of individual cell lines. After cell inoculation, the microtiter plates are incubated at […], 5% CO2, 95% air and 100% relative humidity for 24 h prior to addition of experimental drugs.
# After 24 h, two plates of each cell line are fixed in situ with TCA, to represent a measurement of the cell population for each cell line at the time of drug addition (Tz). Experimental drugs are solubilized in dimethyl sulfoxide at 400-fold the desired final maximum test concentration and stored frozen prior to use. At the time of drug addition, an aliquot of frozen concentrate is thawed and diluted to twice the desired final maximum test concentration with complete medium containing 50 µg/ml gentamicin. Additional four, 10-fold or ½ log serial dilutions are made to provide a total of five drug concentrations plus control. Aliquots of 100 μl of these different drug dilutions are added to the appropriate microtiter wells already containing 100 μl of medium, resulting in the required final drug concentrations.
# Following drug addition, the plates are incubated for an additional 48 h at 37° C., 5% CO2, 95% air, and 100% relative humidity. For adherent cells, the assay is terminated by the addition of cold TCA. Cells are fixed in situ by the gentle addition of 50 μl of cold 50% (w/v) TCA (final concentration, 10% TCA) and incubated for 60 minutes at 4° C. The supernatant is discarded, and the plates are washed five times with tap water and air dried. Sulforhodamine B (SRB) solution (100 μl) at 0.4% (w/v) in 1% acetic acid is added to each well, and plates are incubated for 10 minutes at room temperature. After staining, unbound dye is removed by washing five times with 1% acetic acid and the plates are air dried. Bound stain is subsequently solubilized with 10 mM trizma base, and the absorbance is read on an automated plate reader at a wavelength of 515 nm. For suspension cells, the methodology is the same except that the assay is terminated by fixing settled cells at the bottom of the wells by gently adding 50 μl of 80% TCA (final concentration, 16% TCA). […]
structure (smiles),measurement,setting,value
Cn1nc(C(F)(F)F)cc1-c1ccc(OCc2ccc(Cl)cc2)c(-c2cc(C(F)(F)F)cc(C(F)(F)F)c2)c1O [NSC: D-795899/1],Growth Percent,786-0 (Renal Cancer),2.41%
same,Growth Percent,A498 (Renal Cancer),−26.88%
same,Growth Percent,A549/ATCC (Non-Small Cell Lung Cancer),10.52%
same,Growth Percent,ACHN (Renal Cancer),7.22%
same,Growth Percent,BT-549 (Breast Cancer),2.72%
same,Growth Percent,CCRF-CEM (Leukemia),6.82%
same,Growth Percent,COLO 205 (Colon Cancer),−90.71%
same,Growth Percent,DU-145 (Prostate Cancer),20.58%
same,"Growth Percent, Delta",Delta of the mean graph,89.50%
same,Growth Percent,EKVX (Non-Small Cell Lung Cancer),7.70%
same,Growth Percent,HCC-2998 (Colon Cancer),5.78%
same,Growth Percent,HCT-15 (Colon Cancer),7.50%
same,Growth Percent,HCT-116 (Colon Cancer),3.65%
same,Growth Percent,HL-60(TB) (Leukemia),−39.89%
same,Growth Percent,HOP-62 (Non-Small Cell Lung Cancer),−9.87%
same,Growth Percent,HOP-92 (Non-Small Cell Lung Cancer),−20.08%
same,Growth Percent,HS 578T (Breast Cancer),4.39%
same,Growth Percent,HT29 (Colon Cancer),3.77%
same,Growth Percent,IGROV1 (Ovarian Cancer),31.40%
same,Growth Percent,K-562 (Leukemia),1.63%
same,Growth Percent,KM12 (Colon Cancer),5.04%
same,Growth Percent,LOX IMVI (Melanoma),6.23%
same,Growth Percent,M14 (Melanoma),6.30%
same,Growth Percent,MALME-3M (Melanoma),−15.91%
same,Growth Percent,MCF7 (Breast Cancer),3.01%
same,Growth Percent,MDA-MB-231/ATCC (Breast Cancer),−31.51%
same,Growth Percent,MDA-MB-435 (Melanoma),11.38%
same,Growth Percent,MDA-MB-468 (Breast Cancer),-5.00%
same,Growth Percent,MOLT-4 (Leukemia),−11.7%
same,"Growth Percent, Mean",Mean over the cell panel,-1.21%
same,Growth Percent,NCI-H23 (Non-Small Cell Lung Cancer),0.56%
same,Growth Percent,NCI-H226 (Non-Small Cell Lung Cancer),13.90%
same,Growth Percent,NCI-H322M (Non-Small Cell Lung Cancer),5.67%
same,Growth Percent,NCI-H460 (Non-Small Cell Lung Cancer),−10.44%
same,Growth Percent,NCI-H522 (Non-Small Cell Lung Cancer),−9.19%
same,Growth Percent,NCI/ADR-RES (Ovarian Cancer),1.98%
same,Growth Percent,OVCAR-3 (Ovarian Cancer),7.02%
same,Growth Percent,OVCAR-4 (Ovarian Cancer),20.71%
same,Growth Percent,OVCAR-5 (Ovarian Cancer),29.10%
same,Growth Percent,OVCAR-8 (Ovarian Cancer),8.36%
same,Growth Percent,PC-3 (Prostate Cancer),10.73%
same,Growth Percent,RPMI-8226 (Leukemia),−14.54%
same,Growth Percent,RXF 393 (Renal Cancer),−14.51%
same,"Growth Percent, Range",Range over the cell panel,122.11%
same,Growth Percent,SF-268 (CNS Cancer),16.59%
same,Growth Percent,SF-295 (CNS Cancer),−22.60%
same,Growth Percent,SF-539 (CNS Cancer),2.13%
same,Growth Percent,SK-MEL-2 (Melanoma),−33.97%
same,Growth Percent,SK-MEL-28 (Melanoma),28.00%
same,Growth Percent,SK-MIEL-5 (Melanoma),−36.59%
same,Growth Percent,SK-OV-3 (Ovarian Cancer),−13.54%
same,Growth Percent,SN12C (Renal Cancer),7.93%
same,Growth Percent,SNB-19 (CNS Cancer),22.58%
same,Growth Percent,SNB-75 (CNS Cancer),4.92%
same,Growth Percent,SR (Leukemia),−4.24%
same,Growth Percent,SW-620 (Colon Cancer),13.14%
same,Growth Percent,T-47D (Breast Cancer),−11.64%
same,Growth Percent,TK-10 (Renal Cancer),9.29%
same,Growth Percent,U251 (CNS Cancer),6.17%
same,Growth Percent,UACC-62 (Melanoma),3.02%
same,Growth Percent,UACC-257 (Melanoma),−7.16%
same,Growth Percent,UO-31 (Renal Cancer),−1.27%
